# Earlier results in publication PMC3273554 (Molecular Pharmaceutics, 2011).
# Experiments:
# [1] = tested on: melanoma, BRAF V600E
# [2] = tested on: T cells; conditions: intracellular IFN-γ staining
# [3] = tested on: B16F10; conditions: delivered with poly(I:C) and anti-CD40, boosted; prophylactic B16F10 model
# [4] = tested on: HLA-A201; conditions: 100µg (63.8nmol) with 50µg PADRE T helper epitope in IFA
compound,measurement,setting,value
CCCS(=O)(=O)Nc1ccc(F)c(C(=O)c2c[nH]c3ncc(-c4ccc(Cl)cc4)cc23)c1F [vemurafenib],Response rate in trials,[1],≤ 81%
SIYDFFVWL [deltaV],T cell responsiveness to Trp2,[2],increased T cell responsiveness
same,Tumor growth delay compared to wild type peptide,[3],no increased growth delay
SMYDFFVWL [Trp2 2M],IFN-γ elicited compared to vaccination with wild type peptide,[4],higher amounts of IFN-γ
